US7838275B2, “Anti-HIV and anti-tumor peptides and fragments of lysozyme” (priority 2000, dated 2010)
Like-named read-outs stand apart in the source and are kept apart here. Peptide text beside a SMILES is read from it.

Columns and labels:
HIV-1 = tested on: HIV-1
Description: Human lysozyme (2 mg) was treated with clostripain (10 units, Sigma) in 400 μl of Tris buffer, pH7.6 at 37° C. for 24 h. The digest was resolved by reversed phase chromatography on a ProRPC column (Hr5/10). […] The fractions were assayed for anti-HIV activity by p24 production in HIV-1 infected ACH2 T lymphocytes as described in Lee-Huang et al. (1999).

[1] = tested on: HHV8 infected cells of AIDS patients with Kaposi's sarcoma

Compound	EC50 (HIV-1; 24 h) [µM]	Anti-HIV activity (EC50) (HIV-1)	further results
CC(C)[C@H](NC(=O)[C@H](Cc1c[nH]c2ccccc12)NC(=O)[C@H](C)NC(=O)[C@@H](N)CC(N)=O)C(=O)N[C@@H](C)C(=O)N[C@@H](Cc1c[nH]c2ccccc12)C(=O)N[C@@H](CCCNC(=N)N)C(=O)N[C@@H](CC(N)=O)C(=O)N[C@@H](CCCNC(=N)N)C(=O)O [HL9 (R107→N), NAWVAWRNR] (H-NAWVAWRNR-OH)	> 100	–	–
CC(C)[C@H](NC(=O)[C@H](Cc1c[nH]c2ccccc12)NC(=O)[C@H](C)NC(=O)[C@@H](N)CCCNC(=N)N)C(=O)N[C@@H](C)C(=O)N[C@@H](Cc1c[nH]c2ccccc12)C(=O)N[C@@H](CCCCN)C(=O)N[C@@H](CC(N)=O)C(=O)N[C@@H](CCCNC(=N)N)C(=O)O [HL9 (R113→K), RAWVAWKNR] (H-RAWVAWKNR-OH)	> 100	–	–
CC(C)[C@H](NC(=O)[C@H](Cc1c[nH]c2ccccc12)NC(=O)[C@H](C)NC(=O)[C@@H](N)CCCNC(=N)N)C(=O)N[C@@H](C)C(=O)N[C@@H](Cc1c[nH]c2ccccc12)C(=O)N[C@@H](CCCNC(=N)N)C(=O)N[C@@H](CC(N)=O)C(=O)N[C@@H](CCCCN)C(=O)O [HL9 (R115→K), RAWVAWRNK] (H-RAWVAWRNK-OH)	> 100	–	–
CC(C)[C@H](NC(=O)[C@H](Cc1c[nH]c2ccccc12)NC(=O)[C@H](C)NC(=O)[C@@H](N)CCCNC(=N)N)C(=O)N[C@@H](C)C(=O)N[C@@H](Cc1c[nH]c2ccccc12)C(=O)N[C@@H](CCCNC(=N)N)C(=O)N[C@@H](CC(N)=O)C(=O)N[C@@H](CCCNC(=N)N)C(=O)O [HL9, RAWVAWRNR] (H-RAWVAWRNR-OH)	–	–	EC50 [1]: 0.048 µM
CC[C@H](C)[C@H](NC(=O)CNC(=O)[C@H](CCC(N)=O)NC(=O)[C@@H]1CCCN1C(=O)[C@H](CC(=O)O)NC(=O)[C@H](CCCNC(=N)N)NC(=O)[C@@H](NC(=O)[C@@H](NC(=O)[C@@H](N)CCCNC(=N)N)C(C)C)C(C)C)C(=O)N[C@@H](CCCNC(=N)N)C(=O)N[C@@H](C)C(=O)N[C@@H](Cc1c[nH]c2ccccc12)C(=O)N[C@H](C(=O)N[C@@H](C)C(=O)N[C@@H](Cc1c[nH]c2ccccc12)C(=O)N[C@@H](CCCNC(=N)N)C(=O)N[C@@H](CC(N)=O)C(=O)N[C@@H](CCCNC(=N)N)C(=O)O)C(C)C [HL18, RVVRDPQGIRAWVAWRNR] (H-RVVRDPQGIRAWVAWRNR-OH; N-terminus and C-terminus assumed)	0.058	–	EC50 [1]: 0.056 µM
Lysozyme: Human lysozyme, whole molecule	–	–	EC50 (HIV-1; read-out: Anti-HIV EC50): 0.05 µM; EC50 (HIV-1; read-out: Anti-HIV activity (EC50)): 0.05 µM; EC50 (HIV-1; read-out: anti-HIV EC50 (50% inhibition concentration)): 0.055 µM; EC50 ([1]; read-out: Anti-KS EC50, Table 4): 0.054 µM
RAWVAYRNR [HL9 (W112→Y)]	–	No Anti-HIV	–
RAYVAWRNR [HL9 (W109→Y)]	–	No Anti-HIV	–
RVVRDPQGI [HL18-N9]	–	No Anti-HIV	anti-HIV activity (HIV-1): no anti-HIV activity
RVVRDPQGIRAWVAYRNR [HL18 (W112-Y)]	–	No Anti-HIV	–
RVVRDPQGIRAYVAWRNR [HL18 (W109-Y)]	–	No Anti-HIV	–
